From PMC12749748, “Chemically-induced degradation of the endoplasmic-reticulum stress sensor IRE1 by a VHL-recruiting chimera” (Nature Communications, 2025) come the findings set out here.

For one assay, the target named is T1, MELK (Homo sapiens, UniProt Q14680).
T1 construct: endogenous in cells; host or cells: AMO1
Briefly: Immunoblot of MELK depletion in AMO1 cells. The class given is cell-based. Conditions: additional replicates. On the procedure: Cells were lysed in buffer containing 20 mM HEPES 7.2, 150 mM NaCl, and 1% Triton X-100, supplemented with fresh protease and phosphatase inhibitors (Invitrogen, #78440), cleared by centrifugation at 12,000 × g for 10 min, and analyzed by BCA protein assay (Thermo Fisher Scientific, #23227). Equal protein amounts were loaded, separated by SDS-PAGE, electrotransferred to nitrocellulose membranes using the iBLOT2 system (Invitrogen), and blocked in 5% nonfat milk solution for 60 min. Membranes were probed with primary antibodies at 1:1000 dilution in 5% milk at 4 °C overnight. Signal was detected using appropriate horseradish peroxidase (HRP)-conjugated secondary antibodies at 1:10,000 in 5% milk at room temperature for 1–2 h. Bands were visualized by the Azure 600 western blot imaging system (Azure Biosystems). For in vitro ubiquitination assays performed with Me-Ub, bands were visualized by the Odyssey CLx Imager (LI‑COR) after incubating the blots with the IRDye 800CW (LI-COR) secondary antibodies at 1:10,000 in Intercept Blocking Buffer (LI-COR) at room temperature for 1–2 h. […]
The kinome selectivity of G6374 was assessed at 1 μM for 1 h versus a panel of 220 human kinases (SelectScreen Kinase Profiling Services, Thermo Fisher Scientific). […]
In general terms: In western blotting, separated proteins are transferred to a membrane and probed.

The target in another assay is IRE1 (Homo sapiens, UniProt O75460). Nature of the assay: SelectScreen kinase profiling, IRE1. The class given is biochemical. To be noted: 1 µM, 1 h. Here is the method:
The kinome selectivity of G6374 was assessed at 1 μM for 1 h versus a panel of 220 human kinases (SelectScreen Kinase Profiling Services, Thermo Fisher Scientific). The assays were conducted using either the Z’-LYTE technology to assess inhibition of enzyme activity ([ATP] = Km) or the TR-FRET-based LanthaScreen Eu Kinase Binding assay to assess competitive displacement of an ATP site binding probe. Assay results were normalized to positive and negative controls to determine percent inhibition. Image was created by KNIME Report Designer (KNIME.com AG, Zurich, Switzerland). Kinases for which ATP binding was inhibited by more than 90% were further examined by IB analysis for depletion by G6374 in AMO1 cells (4 h incubation).

The next assay concerns Colo201 cells. Briefly: Incucyte cell confluency, Colo201 cells. Conditions: Colo201 shIRE1 cells, titration. The class given is cell-based. Here is the method: (§1) For non-adherent AMO1, KMS27, and OPM2 cells, cells were plated at 5000 cells/well in ultra-low attachment (ULA) 96-well plates (Costar, #7007) and centrifuged at 600 × g for 5 min for spheroid formation. For adherent U2OS and Colo201 cells, 2000 cells/well were seeded in a clear flat-bottom 96-well plate (Costar, #3595). Treatments were added at the time of cell seeding, and cells were cultured in complete RPMI media to a final volume of 200 µL/well. Cultures were maintained at 37 °C throughout the duration of the experiment. Cell confluency was tracked using the Incucyte live-cell imaging system (Sartorius S3). Picture frames were captured every 4 h with a 4× objective, and cell confluency (%) from the total well area as a function of time was calculated using the Incucyte software (version 2023 A Rev2).

For the next assay, the system named is U2OS cells. Nature of the assay: Incucyte cell confluency, U2OS cells. To be noted: U2OS shIRE1 cells, titration. Type of assay: cell-based. On the procedure: as §1
Assay [1] has as its target VCB (Homo sapiens, UniProt P40337). Nature of the assay: Fluorescence polarization displacement of FAM-labeled HIF-1α peptide from VCB. Type of assay: binding. On the procedure: (§2) Assays were performed in duplicates on ProxiPlate-384 F Plus (Revvity, #6008260) with a total well volume of 16 µL. Each well contained 50 nM of FAM-labeled HIF-1α peptide (FAM-DEALA-Hyp-YIPD, biotechne, #7287), 500 nM of VCB protein, and a titration of G6374 (2-fold serial dilutions from […] to 625 nM, then 1.3-fold serial dilutions to 284.5 nM, followed by 2-fold serial dilutions to 8.9 nM) or IRE1.KR:G6374 (constant concentration of 2.4 µM IRE1.KR and the same serial dilution of G6374 as mentioned above) in 50 mM HEPES pH 7.2, 100 mM NaCl, 1 mM TCEP, and 0.002% Tween 20 with a final concentration of DMSO of 1.5%. The plate was incubated at room temperature in the dark, first for 5 min on a shaker at 300 rpm, then for another 30 min on the bench. FP was measured using the EnVision Multimode Plate Reader (PerkinElmer) with fluorescence excitation and emission wavelengths of 480 nm and 535 nm. The percentage of HIF-1α displacement was calculated by normalization to maximum fluorescence anisotropy (or 0% displacement of the HIF-1α peptide) and minimum fluorescence anisotropy (or 100% displacement of the HIF-1α peptide), which were determined by “top” and “bottom” values of the curve fit of fluorescence anisotropy against G6374 concentration in GraphPad Prism 10 (GraphPad Software, Inc.). The IC50 values were then determined by curve fitting with the percentage of HIF-1α displacement against G6374 concentration in GraphPad Prism 10 (GraphPad Software, Inc.).
For orientation: Fluorescence polarisation rises when a labelled molecule tumbles more slowly, as on binding a larger partner.

For assay [2], the system named is VCB. The assay is described as above. Type of assay: binding. To be noted: ratio between IC50 of VCB: G6374 and VCB: (G6374 + IRE1). On the procedure: as §2

The term IC50 denotes the concentration needed to halve the response being measured.

Several values for one entry are separate records, joined by “and”; a condition that tells them apart may be missing. Identical values can stand only once.

Chain of VCB (Homo sapiens, UniProt P40337) (Q15370 whole entry): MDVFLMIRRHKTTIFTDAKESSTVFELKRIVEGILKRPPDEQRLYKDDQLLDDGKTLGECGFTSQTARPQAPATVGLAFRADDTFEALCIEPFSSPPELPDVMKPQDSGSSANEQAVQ
Chain of VCB (Homo sapiens, UniProt P40337) (Q15369 17-112, further chain): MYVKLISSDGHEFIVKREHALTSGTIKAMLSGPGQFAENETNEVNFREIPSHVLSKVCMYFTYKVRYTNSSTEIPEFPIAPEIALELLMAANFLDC
Chain of VCB (Homo sapiens, UniProt P40337) (P40337 55-213): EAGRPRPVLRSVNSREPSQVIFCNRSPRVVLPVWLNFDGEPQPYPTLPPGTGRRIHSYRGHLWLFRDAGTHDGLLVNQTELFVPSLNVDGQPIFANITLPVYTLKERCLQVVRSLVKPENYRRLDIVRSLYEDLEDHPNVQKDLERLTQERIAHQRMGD
T1 sequence (Q14680 whole entry): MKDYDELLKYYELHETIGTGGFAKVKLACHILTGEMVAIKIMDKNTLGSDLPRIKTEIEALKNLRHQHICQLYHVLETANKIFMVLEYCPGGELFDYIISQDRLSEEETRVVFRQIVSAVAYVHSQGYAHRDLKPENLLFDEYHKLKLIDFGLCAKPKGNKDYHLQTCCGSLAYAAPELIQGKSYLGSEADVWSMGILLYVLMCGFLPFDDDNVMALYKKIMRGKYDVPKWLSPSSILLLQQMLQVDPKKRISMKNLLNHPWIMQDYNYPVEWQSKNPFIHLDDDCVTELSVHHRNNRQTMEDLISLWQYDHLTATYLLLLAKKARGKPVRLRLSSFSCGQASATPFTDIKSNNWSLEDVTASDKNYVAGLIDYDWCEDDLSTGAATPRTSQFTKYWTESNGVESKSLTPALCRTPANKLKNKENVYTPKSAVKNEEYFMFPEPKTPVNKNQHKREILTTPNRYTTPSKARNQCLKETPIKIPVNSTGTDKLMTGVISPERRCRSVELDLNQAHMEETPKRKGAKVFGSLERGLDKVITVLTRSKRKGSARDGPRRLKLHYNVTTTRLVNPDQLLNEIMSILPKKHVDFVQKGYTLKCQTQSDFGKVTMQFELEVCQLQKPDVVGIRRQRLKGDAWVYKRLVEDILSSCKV
Chain of IRE1 (O75460 19-977): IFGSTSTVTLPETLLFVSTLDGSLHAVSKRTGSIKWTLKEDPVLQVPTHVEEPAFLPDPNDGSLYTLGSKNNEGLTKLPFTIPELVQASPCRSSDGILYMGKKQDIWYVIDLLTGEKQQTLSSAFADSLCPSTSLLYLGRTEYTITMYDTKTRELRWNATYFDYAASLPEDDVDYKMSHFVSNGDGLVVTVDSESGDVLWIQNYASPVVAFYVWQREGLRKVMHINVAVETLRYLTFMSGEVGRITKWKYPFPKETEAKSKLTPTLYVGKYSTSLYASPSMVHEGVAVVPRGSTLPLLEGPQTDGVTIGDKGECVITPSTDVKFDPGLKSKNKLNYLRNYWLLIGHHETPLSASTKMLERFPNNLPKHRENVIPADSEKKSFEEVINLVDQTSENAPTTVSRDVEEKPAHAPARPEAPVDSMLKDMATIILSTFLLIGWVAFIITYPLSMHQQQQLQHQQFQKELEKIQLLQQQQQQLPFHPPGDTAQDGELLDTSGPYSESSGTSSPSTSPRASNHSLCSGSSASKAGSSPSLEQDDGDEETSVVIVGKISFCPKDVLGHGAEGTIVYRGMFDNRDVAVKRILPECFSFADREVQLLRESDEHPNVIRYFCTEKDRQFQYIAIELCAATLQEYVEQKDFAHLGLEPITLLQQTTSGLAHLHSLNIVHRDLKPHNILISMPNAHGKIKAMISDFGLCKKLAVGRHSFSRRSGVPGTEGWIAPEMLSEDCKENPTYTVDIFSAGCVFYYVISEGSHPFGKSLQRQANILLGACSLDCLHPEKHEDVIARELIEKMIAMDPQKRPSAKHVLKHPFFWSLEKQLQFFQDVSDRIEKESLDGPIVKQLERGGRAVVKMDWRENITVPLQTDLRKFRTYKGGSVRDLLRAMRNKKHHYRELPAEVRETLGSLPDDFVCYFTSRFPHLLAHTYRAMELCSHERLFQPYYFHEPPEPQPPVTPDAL

As to `Cc1ncsc1-c1ccc(CNC(=O)[C@@H]2C[C@@H](O)CN2C(=O)[C@@H](NC(=O)CCCCN2CCN([C@H]3CC[C@H](Nc4ncc5ccc(=O)n(C(C)C)c5n4)CC3)CC2)C(C)(C)C)cc1` [G6374], the “depletion of MELK” value on MELK is on record as “MELK is not depleted”. For the same compound, the “inhibition of IRE1” value at IRE1 was “complete inhibition”. In addition, the “proliferation rate (cell confluency)” value in the assay with Colo201 cells and in the assay on U2OS cells was “did not affect the proliferation rate” throughout. The concentration for half-maximal inhibition (IC50) came to 2480 ± 112 nM at VCB [1] (G6374 alone, absence of IRE1, N=3, mean ± SEM) and 492 ± 21 nM at VCB [1] (G6374 in the presence of saturating IRE1 (2.4 µM), N=3, mean ± SEM). Moreover, the Cooperativity alpha in the assay on VCB [2] is 5 and 5 ± 0.15.
